Source: ChEMBL document CHEMBL2424555, “Discovery of novel 4-anilinoquinazoline derivatives as potent inhibitors of epidermal growth factor receptor with antitumor activity” (Bioorg Med Chem, 2013)
Active and inactive are the calls of the source. The rule behind the calls is not given here.

What was measured:
[1] = target: Epidermal growth factor receptor (Homo sapiens, UniProt P00533); assay: Inhibition of recombinant EGFR kinase cytoplasmic domain (unknown origin) expressed in baculovirus expression vector-infected insect sf9 cells assessed as level of autophosphorylation after 10 mins by DELFIA/time-resolved fluorometry
[2] = system: HepG2; assay: Antiproliferative activity against human HepG2 cells after 48 hrs by MTT assay; type: functional, cell-based; conditions: HepG2, 48 h
[3] = system: A549; assay: Antiproliferative activity against human A549 cells after 48 hrs by MTT assay; type: functional, cell-based; conditions: A549, 48 h
[4] = system: A549; assay: Induction of apoptosis in human A549 cells assessed as nuclear fragmentation at 5 to 20 uM after 24 hrs by Hoechst 33258 staining-based fluorescence microscopy relative to control; type: functional, cell-based
[5] = system: A549; assay: Induction of apoptosis in human A549 cells assessed as nuclear condensation at 5 to 20 uM after 24 hrs by Hoechst 33258 staining-based fluorescence microscopy relative to control; type: functional, cell-based
[6] = system: A549; assay: Induction of apoptosis in human A549 cells assessed as nuclear convolution and budding off into several fragments after 24 hrs by Hoechst 33258 staining-based fluorescence microscopy relative to control; type: functional, cell-based
[7] = system: A549; assay: Induction of apoptosis in human A549 cells assessed as nuclear condensation after 24 hrs by Hoechst 33258 staining-based fluorescence microscopy relative to control; type: functional, cell-based
[8] = system: A549; assay: Induction of apoptosis in human A549 cells assessed as nuclear fragmentation after 24 hrs by Hoechst 33258 staining-based fluorescence microscopy relative to control; type: functional, cell-based
[9] = system: A549; assay: Induction of apoptosis in human A549 cells assessed as nuclear convolution and budding off into several fragments at 5 to 20 uM after 24 hrs by Hoechst 33258 staining-based fluorescence microscopy relative to control; type: functional, cell-based

Sequence of Epidermal growth factor receptor (P00533 whole entry, the tested form may be a part): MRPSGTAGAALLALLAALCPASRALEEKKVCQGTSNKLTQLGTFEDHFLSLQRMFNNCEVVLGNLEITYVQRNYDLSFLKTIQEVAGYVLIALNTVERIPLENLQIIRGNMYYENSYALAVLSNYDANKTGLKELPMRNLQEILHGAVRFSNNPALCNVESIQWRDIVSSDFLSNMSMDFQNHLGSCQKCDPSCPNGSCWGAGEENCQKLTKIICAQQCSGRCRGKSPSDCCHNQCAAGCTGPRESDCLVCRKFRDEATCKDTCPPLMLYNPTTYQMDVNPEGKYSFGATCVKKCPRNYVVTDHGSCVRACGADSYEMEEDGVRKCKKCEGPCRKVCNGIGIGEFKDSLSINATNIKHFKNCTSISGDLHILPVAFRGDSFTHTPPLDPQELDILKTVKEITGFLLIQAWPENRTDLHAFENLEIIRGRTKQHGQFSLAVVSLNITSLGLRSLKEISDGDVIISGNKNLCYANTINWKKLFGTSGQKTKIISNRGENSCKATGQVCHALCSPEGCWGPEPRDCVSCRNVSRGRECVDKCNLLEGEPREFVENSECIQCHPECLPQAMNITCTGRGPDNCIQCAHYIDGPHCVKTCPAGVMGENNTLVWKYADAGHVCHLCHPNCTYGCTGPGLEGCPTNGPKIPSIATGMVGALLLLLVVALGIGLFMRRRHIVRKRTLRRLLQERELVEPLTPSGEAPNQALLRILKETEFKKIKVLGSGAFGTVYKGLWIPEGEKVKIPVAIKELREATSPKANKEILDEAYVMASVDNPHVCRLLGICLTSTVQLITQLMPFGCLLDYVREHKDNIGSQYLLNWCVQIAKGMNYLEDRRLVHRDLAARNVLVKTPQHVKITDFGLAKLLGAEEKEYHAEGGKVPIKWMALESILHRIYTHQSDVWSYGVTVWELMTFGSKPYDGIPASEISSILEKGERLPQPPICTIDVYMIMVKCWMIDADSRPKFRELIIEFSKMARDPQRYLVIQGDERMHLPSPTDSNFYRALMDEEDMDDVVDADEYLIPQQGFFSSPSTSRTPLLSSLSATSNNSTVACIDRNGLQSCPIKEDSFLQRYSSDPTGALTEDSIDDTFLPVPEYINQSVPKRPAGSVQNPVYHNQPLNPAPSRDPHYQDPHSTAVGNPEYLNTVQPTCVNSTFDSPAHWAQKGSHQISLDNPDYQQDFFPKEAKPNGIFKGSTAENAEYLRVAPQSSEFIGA

Row | SMILES | IC50 [1] [µM] | IC50 [2] [µM] | IC50 [3] [nM] | also measured
1 | O=C(/C=C/c1ccc(Br)s1)Nc1ccc2ncnc(Nc3cccc(Cl)c3)c2c1 | 2.4 | 8.85 | 1580 | –
2 | Clc1cccc(Nc2ncnc3ccc(NCc4ncc5ccccc5n4)cc23)c1 | – | 5.65 | 1710 | –
3 | O=C(/C=C/c1ncc2ccccc2n1)Nc1ccc2ncnc(Nc3cccc(Cl)c3)c2c1 | – | 7.79 | 3350 | –
4 | O=C(/C=C/c1cccnc1Cl)Nc1ccc2ncnc(Nc3cccc(Cl)c3)c2c1 | 3.6 | 4.42 | 2920 | –
5 | Cc1cccc(/C=C/C(=O)Nc2ccc3ncnc(Nc4cccc(Cl)c4)c3c2)n1 | – | 4.82 | 2160 | –
6 | Clc1cccc(Nc2ncnc3ccc(NCc4ccc(Br)s4)cc23)c1 | 1.5 | 3.11 | 820 | Activity [4]: Active; Activity [5]: Active; Activity [6]: Dose-dependent effect; Activity [7]: Dose-dependent effect; Activity [8]: Dose-dependent effect; Activity [9]: Active
7 | Clc1cccc(Nc2ncnc3ccc(NCc4cccnc4)cc23)c1 | – | 4.14 | 2670 | –
8 | CSCCCNc1ccc2ncnc(Nc3cccc(Cl)c3)c2c1 | 5.1 | 8.92 | 3820 | –
9 | CCCCNc1ccc2ncnc(Nc3cccc(Cl)c3)c2c1 | – | 7.85 | 4010 | –
10 | O=C(/C=C/c1cccc(Br)n1)Nc1ccc2ncnc(Nc3cccc(Cl)c3)c2c1 | – | 10.7 | 4160 | –
11 | Cc1cccc(CNc2ccc3ncnc(Nc4cccc(Cl)c4)c3c2)n1 | – | 3.63 | 1060 | –
12 | O=C(/C=C/c1cccs1)Nc1ccc2ncnc(Nc3cccc(Cl)c3)c2c1 | 8.8 | 10.4 | 9310 | –
13 | O=C(/C=C/c1c[nH]c2ccccc12)Nc1ccc2ncnc(Nc3cccc(Cl)c3)c2c1 | – | 7.02 | 3670 | –
14 | Clc1cccc(Nc2ncnc3ccc(NCc4c[nH]c5ccccc45)cc23)c1 | – | 5.26 | 2330 | –
15 | O=C(/C=C/c1cccnc1)Nc1ccc2ncnc(Nc3cccc(Cl)c3)c2c1 | 4.7 | 9.12 | 4320 | –
16 | Clc1cccc(Nc2ncnc3ccc(NCc4cccs4)cc23)c1 | 3.4 | 3.58 | 2080 | –
17 | Clc1cccc(Nc2ncnc3ccc(NCc4cccc(Br)n4)cc23)c1 | 4.1 | 3.87 | 2950 | –
